According to paper doi:10.1101/2024.07.22.604525v1 (bioRxiv, 2024):
Like-named read-outs stand apart in the source and are kept apart here. Where a SMILES comes first, the peptide text is derived from it.

Columns and labels:
C57BL/6J male SPF mice = assay: Preliminary safety evaluation in mice; type: in vivo; settings: 10 mg/kg and 100 mg/kg, gavage 3 times per week, 4 weeks, n = 6 mice/group
HFD-fed mice [1] = assay: HFD-fed obese mice, VAMP for 1 week; type: in vivo; settings: HFD 8 weeks, then VAMP 50 mg/kg daily for 1 week, vs vehicle, n = 6
HFD-induced obese mice = assay: HFD-induced obese mice, VAMP and/or benzydamine for 4 weeks; type: in vivo; settings: HFD 8 weeks, then VAMP 50 mg/kg three times per week for 4 weeks, n = 6
ob/ob mice = assay: ob/ob mice, VAMP for 4 weeks; type: in vivo; settings: VAMP 50 mg/kg daily oral gavage, n = 6
[2] = tested on: other strains of Bacteroides; assay: Single-strain growth in culture; type: cell-based; settings: VAMP 50 μM vs PBS, anaerobic, 48 h, OD600 ratio
HFD-fed mice [3] = type: in vivo; settings: 8 weeks
A. muciniphila = type: in vivo; settings: HFD-fed mice, VAMP 50 mg/kg oral gavage, 8 weeks; colonic contents, 16S rRNA
HFD-fed mice [4] = assay: HFD-fed mice, TPH or sitagliptin for 8 weeks; type: in vivo; settings: sitagliptin 12.5 mg/kg daily oral gavage
[5] = HFD plus VAMP 50 mg/kg daily oral gavage, vs HFD-fed control
[6] = HFD plus VAMP 50 mg/kg daily oral gavage, vs vehicle, n = 6

## CSCC[C@H](NC(=O)[C@H](C)NC(=O)[C@@H](N)C(C)C)C(=O)N1CCC[C@H]1C(=O)O [VAMP] (H-VAMP-OH; N-terminus and C-terminus assumed)
C57BL/6J male SPF mice
  side effects in mice (body weight, food intake, ALT, AST, UREA, CRE): did not induce any obvious side effects
HFD-fed mice [1]
  energy intake: no significant differences
  plasma active GLP-1 level: increased
  plasma total GLP-1 level: without altering
HFD-induced obese mice
  body weight: significantly decreased
ob/ob mice
  FBG: steadily decreased
  body weight: no significant difference
  energy intake: no significant difference
  intestinal DPP-IV activity: suppressed intestinal DPP-IV activity
  intestinal active GLP-1 level: increased the levels
  plasma active GLP-1 level: increased the levels
[2]
  growth of other strains of Bacteroides: failed to stimulate the growth
HFD-fed mice [3]; Alcian blue-stained sections, HFD plus VAMP 50 mg/kg
  thickness of colonic mucus layer: increased thickness of mucus layer
HFD-fed mice [3]; [5]
  plasma IL-1β level: significantly reduced
  plasma TNF-α level: significantly reduced
  plasma endotoxin (LPS) level: significantly reduced
HFD-fed mice [3]; HFD plus VAMP 50 mg/kg daily oral gavage, vs vehicle
  fat weight/body weight ratio: significantly decreased
HFD-fed mice [3]; HFD plus VAMP 50 mg/kg daily oral gavage, vs vehicle, 3 mice per group
  size of adipocytes in white adipose tissue: significantly decreased
HFD-fed mice [3]; [6]
  FBG: significantly decreased
  body weight: significantly decreased
  fasting insulin level: decreased fasting insulin levels
  glucose tolerance (OGTT): improved glucose tolerance
  intestinal active GLP-1 level: significantly increased
  intestinal total GLP-1 level: without affecting
  plasma active GLP-1 level: significantly increased
  plasma total GLP-1 level: without affecting
HFD-fed mice [3]; colonic tissue mRNA, RT-qPCR, HFD plus VAMP 50 mg/kg
  expression of intestinal Tjp1, Ocln, Cldn3, and Muc2: upregulate
A. muciniphila
  abundance of Akkermansia (genus level): significantly increased

## N[C@@H](CC(=O)N1CCn2c(nnc2C(F)(F)F)C1)Cc1cc(F)c(F)cc1F [sitagliptin, Sitagliptin]
HFD-fed mice [4]
  glucose metabolism in obese mice: effectively improved glucose metabolism
